Source: ChEMBL document CHEMBL1141330, “Vanillic acid derivatives from the green algae Cladophora socialis as potent protein tyrosine phosphatase 1B inhibitors” (J Nat Prod, 2007)

Molecular target: T1, Tyrosine-protein phosphatase non-receptor type 1 (Homo sapiens, UniProt P18031)
T1 sequence (P18031 whole entry): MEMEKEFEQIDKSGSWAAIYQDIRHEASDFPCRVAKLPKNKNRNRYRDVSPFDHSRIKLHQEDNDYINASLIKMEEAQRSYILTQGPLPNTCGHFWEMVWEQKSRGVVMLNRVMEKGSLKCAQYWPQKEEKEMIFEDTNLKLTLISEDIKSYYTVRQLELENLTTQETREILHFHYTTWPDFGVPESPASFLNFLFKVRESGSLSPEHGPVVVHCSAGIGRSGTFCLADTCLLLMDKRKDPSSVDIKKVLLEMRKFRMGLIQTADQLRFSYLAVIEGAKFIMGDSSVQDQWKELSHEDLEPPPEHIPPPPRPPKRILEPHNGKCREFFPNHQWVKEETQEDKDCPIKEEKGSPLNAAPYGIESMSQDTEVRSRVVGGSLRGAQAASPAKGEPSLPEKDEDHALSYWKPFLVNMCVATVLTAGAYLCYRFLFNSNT
Test: Inhibition of PTP1B

IC50 | Compound
1700 nM | O=C(O)c1cc2oc3c(Oc4ccc(-c5ccc(OS(=O)(=O)O)c(O)c5)cc4O)cc(O)cc3c2cc1O
3710 nM | O=C(O)c1cc2oc3c(Oc4ccc(-c5ccc(O)c(O)c5)cc4O)cc(O)cc3c2cc1O
